The results in this text go back to patent US20260083701A1, “COMPOSITIONS, FORMULATIONS, AND METHODS FOR TREATMENT OF INFLAMMATORY CONDITIONS” (Oddity Labs, LLC, priority 2023, published 2026).

The structures appear in SMILES notation.

The test system of one assay is IL-13. Kind of assay: Functional Th2-blocking activity: IL-13 expression in primary human Th2 cells (intracellular flow cytometry). Particulars: for Expression of Cytokine following Stimulation (% X Positive among CD4+ T cells) IL-13: 3 days co-culture with compound, PMA/ionomycin stimulation 6 hours; for % Normalized Reduction of Cytokine Expression From Baseline in CD4+ T Cells IL-13: normalized against vehicle control (water), 3 days co-culture, PMA/ionomycin 6 hours. The format is cell-based. The text has this: (§1) To produce T helper 2 (Th2) cells, peripheral blood mononuclear cells (PBMCs) were harvested from healthy donor leukopaks using Ficoll gradients. Naive CD4+ T cells were further isolated, then activated using TransAct or Dynabeads (depending on the donor). CD4+ T cells were activated for two days in the presence of low dose IL-2 (30 IU/mL) in X-VIVO-15 media containing 5% human AB serum (activation cycle). On the second day, the media was exchanged and supplemented with interleukin 4 (IL-4) (20 ng/mL), anti-IFN-gamma antibody (1 μg/mL), and interleukin 2 (IL-2) (rest cycle). The cells were cultured for an additional five days then evaluated for Prostaglandin D2 receptor 2 (DP2 or CRTH2) expression and IL-4 and interleukin 13 (IL-13) expression following phorbol myristate acetate (PMA)/ionomycin stimulation. If the expression of CRTH2 was >50%, the cells were frozen and used in Th2 IL-4/IL-13 bioactivity assays. If the expression of CRTH2 <50%, then the cells were restimulated using TransAct (or Dynabeads) and maintained on similar cycles of activation (2 days) and rest (5 days), until the expression of CRTH2 exceeded 50%. Typically, no more than 4 cycles are needed before the Th2 cells may be harvested and frozen.
(§2) For testing the ability of a compound or salt of the present disclosure to reduce the expression of IL-4 and IL-13 was tested in primary human Th2 cells, the abovementioned cells were thawed, then cultured for one day in IL-2 containing media. The Th2 cells were treated with compounds added at varying concentrations for three days, after which, the cells were washed, and stimulated with PMA/ionomycin for 6 hrs prior to readabout via intracellular flow cytometry.
(§3) The ability of a compound or salt of the present disclosure to reduce the expression of IL-4 and IL-13 was tested in primary human Th2 cells. Naive, primary human CD4+ T cells were isolated from healthy donors and differentiated into Th2 cells using a combination of IL-4 cytokine and anti-IFN-gamma antibody, based on a modified protocol from Scott et al (Activation of Th2 cells downregulates CRTh2 through an NFAT1 mediated mechanism. PLoS One. 2018 Jul. 3; 13(7):e0199156). Th2 cells were CRTH2+ and expressed IL-4 and IL-13 following PMA/ionomycin stimulation. Prior to PMA/ionomycin stimulation, Th2 cells were co-cultured with a compound or salt of the present disclosure for 3 days and then stimulated for 6 hours. Intracellular flow cytometry was performed to investigate the expression of IL-4 and IL-13 among stimulated CD4+ Th2 cells. The compound or salt was evaluated across a 2-log concentration range. Th2 cells were cultured in X-VIVO-15 media with human AB serum and supplemented with low dose IL-2 (30 IU/mL). The antibody panel that was used is listed below. All antibodies were obtained from Biolegend.
(§4) Description of Calculation for: (1) Expression of Cytokine following Stimulation (% X Positive among CD4+ T cells), and (2) % Normalized Reduction of Cytokine Expression From Baseline in CD4+ T Cells
(§5) The expression of IL-4 and IL-13 was measured based on positive gated fractions among CD4+ Th2 cells. The number is expressed as a positive percentage, determined based on the fluorescence-minus-one (FMO) control. The max percent is 100%. The normalized reduction value uses the vehicle control (water) to normalize against using the following percent change formula. (Cmpd: compound)
For orientation: In flow cytometry, cells or beads pass a laser one at a time.

Another assay deals with IL-4. Kind of assay: Functional Th2-blocking activity: IL-4 expression in primary human Th2 cells (intracellular flow cytometry). The format is cell-based. Particulars: primary human CD4+ Th2 cells; for % Normalized Reduction of Cytokine Expression From Baseline in CD4+ T Cells IL-4: normalized against vehicle control (water), 3 days co-culture, PMA/ionomycin 6 hours; for Expression of Cytokine following Stimulation (% X Positive among CD4+ T cells) IL-4: 3 days co-culture with compound, PMA/ionomycin stimulation 6 hours.
Excerpt: as §1, §2, §3, §4, §5

`COc1ccc(-c2cc(=O)c3c(O)cc(O[C@@H]4O[C@H](CO)[C@@H](O)[C@H](O)[C@H]4O)cc3o2)cc1O` [VI-12, Diosmetin-7-O-beta-D-glucopyranoside]: in the assay on IL-13, the “Expression of Cytokine following Stimulation (% X Positive among CD4+ T cells) IL-13” value is reported as “A (A represents 0% to less than 10%)” and the “% Normalized Reduction of Cytokine Expression From Baseline in CD4+ T Cells IL-13” value (“% Normalized Reduction … in CD4+ T Cells IL-13” below) is listed as “D (D represents 50% or greater)”. In addition, in the assay with IL-4, the “% Normalized Reduction of Cytokine Expression From Baseline in CD4+ T Cells IL-4” value (“% Normalized Reduction … in CD4+ T Cells IL-4” below) is listed as “D (D represents 25% or greater)” and the “Expression of Cytokine following Stimulation (% X Positive among CD4+ T cells) IL-4” value is recorded as “A (A represents 0% to less than 30%)”.

Take `O=C(Cc1c[nH]c2ccccc12)Nc1cccc(-c2ccc3nnc(-c4cccnc4)n3n2)c1` [III-5, 2-(1H-indol-3-yl)-N-{3-[3-(pyridin-3-yl)-[1,2,4]triazolo[4,3-b]pyridazin-6-yl]phenyl}acetamide]: in the assay with IL-13, the “Expression of Cytokine following Stimulation (% X Positive among CD4+ T cells) IL-13” value is given as “B (B represents 10% to less than 14%)” and the “% Normalized Reduction … in CD4+ T Cells IL-13” value is on record as “D (D represents 50% or greater)”. Further, in the assay on IL-4, the “% Normalized Reduction … in CD4+ T Cells IL-4” value is recorded as “A (A represents 0% to less than 15%)” and the “Expression of Cytokine following Stimulation (% X Positive among CD4+ T cells) IL-4” value is “C (C represents 35% to less than 40%)”.

Turning to `CC1=NN(c2cccc(Cl)c2)C(=O)/C1=C\Nc1cccc2c1C(=O)c1ccccc1C2=O` [VI-7, 1-({[1-(3-chlorophenyl)-3-methyl-5-oxo-1,5-dihydro-4H-pyrazol-4-ylidene]methyl}amino)anthra-9,10-quinone], in the assay on IL-13, the “Expression of Cytokine following Stimulation (% X Positive among CD4+ T cells) IL-13” value is reported as “C (C represents 14% to less than 18%)” and the “% Normalized Reduction … in CD4+ T Cells IL-13” value is recorded as “B (B represents 30% to less than 40%)”. Further, in the assay with IL-4, the “% Normalized Reduction … in CD4+ T Cells IL-4” value is reported as “D (D represents 25% or greater)” and the “Expression of Cytokine following Stimulation (% X Positive among CD4+ T cells) IL-4” value is “B (B represents 30% to less than 35%)”.

As to `O=C(NCCn1ccc2ccccc21)NC1CC(=O)N(c2cccc(F)c2)C1` (stereo not drawn) [VI-2, 3-[1-(3-fluorophenyl)-5-oxopyrrolidin-3-y1]-1-[2-(1H-indol-1-yl)ethyl]urea], in the assay with IL-13, the “Expression of Cytokine following Stimulation (% X Positive among CD4+ T cells) IL-13” value was “D (D represents 18% or greater)” and the “% Normalized Reduction … in CD4+ T Cells IL-13” value is “A (A represents 0% to less than 30%)”. For the same compound, in the assay on IL-4, the “% Normalized Reduction … in CD4+ T Cells IL-4” value is reported as “D (D represents 25% or greater)” and the “Expression of Cytokine following Stimulation (% X Positive among CD4+ T cells) IL-4” value is listed as “B (B represents 30% to less than 35%)”.

`O=C(Nc1cccc(NC(=O)c2ccc3[nH]c4c(c3c2)CCCC4)c1)c1ccccc1` [III-7, N-(3-benzamidophenyl)-2,3,4,9-tetrahydro-1H-carbazole-6-carboxamide]: in the assay with IL-13, the “Expression of Cytokine following Stimulation (% X Positive among CD4+ T cells) IL-13” value was “B (B represents 10% to less than 14%)” and the “% Normalized Reduction … in CD4+ T Cells IL-13” value is given as “D (D represents 50% or greater)”. In the assay with IL-4, the “% Normalized Reduction … in CD4+ T Cells IL-4” value was “D (D represents 25% or greater)” and the “Expression of Cytokine following Stimulation (% X Positive among CD4+ T cells) IL-4” value is given as “A (A represents 0% to less than 30%)”.

In the case of `O=C1CCC(N2Cc3c(OCC(=O)N4CCCC(c5ccccn5)C4)cccc3C2=O)C(=O)N1` (stereo not drawn) [Compound V-2, 3-(1-oxo-4-{2-oxo-2-[3-(pyridin-2-yl)piperidin-1-yl]ethoxy}-2,3-dihydro-1H-isoindol-2-yl)piperidine-2,6-dione], in the assay with IL-13, the “Expression of Cytokine following Stimulation (% X Positive among CD4+ T cells) IL-13” value is “B (B represents 10% to less than 14%)” and the “% Normalized Reduction … in CD4+ T Cells IL-13” value is on record as “D (D represents 50% or greater)”. Also, in the assay with IL-4, the “% Normalized Reduction … in CD4+ T Cells IL-4” value is “D (D represents 25% or greater)” and the “Expression of Cytokine following Stimulation (% X Positive among CD4+ T cells) IL-4” value is reported as “A (A represents 0% to less than 30%)”.
